The target of the test is T1, EP2 receptor (Homo sapiens, UniProt P43116).
T1 construct: SF295 glioblastoma cells express high endogenous EP2 and no EP4; host or cells: SF295 glioblastoma cells
In words: hEP2 cAMP assay (SF295 glioblastoma cells, HTRF cAMP, PGE2 stimulation). The settings on record: antagonistic activity. The test is classed as cell-based. The gist of the method:
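SF295 glioblastoma cells with endogenous EP2 and no EP4, in HBSS/HEPES/BSA with 2 mM IBMX, pre-incubated 45 min at room temperature with compound, then stimulated 30 min with 75 nM PGE2 (EC80). cAMP measured by HTRF; IC50 fitted from duplicate % cAMP versus DMSO control.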
(In general: Cyclic AMP is a second messenger, typically raised through Gs and lowered through Gi signalling.)

SMILES strings stand for the structures.

By IC50 is commonly meant the concentration that gives 50% inhibition. A higher IC50 goes with weaker potency in that assay.

T1 sequence (P43116 whole entry): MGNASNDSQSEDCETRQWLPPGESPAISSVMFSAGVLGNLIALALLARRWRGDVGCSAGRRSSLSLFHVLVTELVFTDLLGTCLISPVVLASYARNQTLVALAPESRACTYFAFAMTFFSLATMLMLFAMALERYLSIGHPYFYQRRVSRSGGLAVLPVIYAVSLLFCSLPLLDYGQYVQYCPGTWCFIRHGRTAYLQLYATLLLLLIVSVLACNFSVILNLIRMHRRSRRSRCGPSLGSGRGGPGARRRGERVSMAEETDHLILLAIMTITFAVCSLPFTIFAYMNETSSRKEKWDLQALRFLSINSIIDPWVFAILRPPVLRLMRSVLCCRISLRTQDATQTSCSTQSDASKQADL

`Cc1sc2c(C)cc(F)cc2c1CCNc1cc(-c2ccc(C(=O)O)c(OC(F)F)c2)ncn1` [Example 115, 2-Difluoromethoxy-4-{6-[2-(5-fluoro-2,7-dimethyl-benzo[b]thiophen-3-yl)-ethylamino]-pyrimidin-4-yl}-benzoic acid] showed an IC50 of 8 nM. To `COc1ccc(Cl)c2c(CCNc3cc(-c4ccc(C(=O)O)c(OC(F)F)c4)ncn3)c(C)sc12` [Example 116, 4-{6-[2-(4-Chloro-7-methoxy-2-methyl-benzo[b]thiophen-3-yl)-ethylamino]-pyrimidin-4-yl}-2-difluoromethoxy-benzoic acid] belongs 35 nM.

`CCOc1cc(-c2cc(NCCc3c(C)sc4c(OC)ccc(F)c34)ncn2)ccc1OCC(=O)O` [Example 117, (2-Ethoxy-4-{6-[2-(4-fluoro-7-methoxy-2-methyl-benzo[b]thiophen-3-yl)-ethylamino]-pyrimidin-4-yl}-phenoxy)-acetic acid] gave an IC50 of 101 nM. The figure for `CCOc1cc(-c2cc(NCCc3c(C)sc4c(C)ccc(F)c34)ncn2)ccc1OCC(=O)O` [Example 118, (2-Ethoxy-4-{6-[2-(4-fluoro-2,7-dimethyl-benzo[b]thiophen-3-yl)-ethylamino]-pyrimidin-4-yl}-phenoxy)-acetic acid] is 112 nM; for `CCOc1cc(-c2cc(NCCc3c(C)sc4c(C)c(F)ccc34)ncn2)ccc1OCC(=O)O` [Example 119, (2-Ethoxy-4-{6-[2-(6-fluoro-2,7-dimethyl-benzo[b]thiophen-3-yl)-ethylamino]-pyrimidin-4-yl}-phenoxy)-acetic acid] it is 119 nM; for `CCOc1cc(-c2cc(NCCc3c(C)oc4c(Cl)cccc34)ncn2)ccc1OCC(=O)O` [Example 120, (4-{6-[2-(7-Chloro-2-methyl-benzofuran-3-yl)-ethylamino]-pyrimidin-4-yl}-2-ethoxy-phenoxy)-acetic acid] it is 59 nM. The figure for `CCOc1cc(-c2cc(NCCc3c(C)oc4c(OC)cc(Cl)cc34)ncn2)ccc1OCC(=O)O` [Example 121, (4-{6-[2-(5-Chloro-7-methoxy-2-methyl-benzofuran-3-yl)-ethylamino]-pyrimidin-4-yl}-2-ethoxy-phenoxy)-acetic acid] is 155 nM. To `CCOc1cc(-c2cc(NCCc3c(C)sc4c(C)cccc34)ncn2)ccc1OCC(=O)O` [Example 122, (4-{6-[2-(2,7-Dimethyl-benzo[b]thiophen-3-yl)-ethylamino]-pyrimidin-4-yl}-2-ethoxy-phenoxy)-acetic acid] belongs 40 nM.

The molecule `CCCCOc1cc(-c2cc(NCCc3c(C)sc4c(C)cc(F)cc34)ncn2)ccc1C(=O)O` [Example 127, 2-Butoxy-4-{6-[2-(5-fluoro-2,7-dimethyl-benzo[b]thiophen-3-yl)-ethylamino]-pyrimidin-4-yl}-benzoic acid] registered an IC50 of 106 nM. For `Cc1oc2ccccc2c1CCNc1cc(-c2ccc(C(=O)O)c(SC3CCC3)c2)ncn1` [Example 129, 2-Cyclobutylsulfanyl-4-{6-[2-(2-methyl-benzofuran-3-yl)-ethylamino]-pyrimidin-4-yl}-benzoic acid], 15 nM corresponded to half-maximal inhibition (IC50). `Cc1sc2c(C)cccc2c1CCNc1cc(-c2ccc(C(=O)O)c(SC3CCC3)c2)ncn1` [Example 130, 2-Cyclobutylsulfanyl-4-{6-[2-(2,7-dimethyl-benzo[b]thiophen-3-yl)-ethylamino]-pyrimidin-4-yl}-benzoic acid]: the IC50 stood at 20 nM. The figure for `Cc1sc2c(C)cccc2c1CCNc1cc(-c2ccc(C(=O)O)c(SC3COC3)c2)ncn1` [Example 131, 4-{6-[2-(2,7-Dimethyl-benzo[b]thiophen-3-yl)-ethylamino]-pyrimidin-4-yl}-2-(oxetan-3-ylsulfanyl)-benzoic acid] is 22 nM; for `O=C(O)c1ccc(-c2cc(NCCc3csc4ccccc34)ncn2)cc1OC1CCC1` [Example 132, 4-[6-(2-Benzo[b]thiophen-3-yl-ethylamino)-pyrimidin-4-yl]-2-cyclobutoxy-benzoic acid] it is 167 nM. To `COc1cc(Cl)cc2c(CCNc3cc(-c4ccc(C(=O)O)c(OC5CCC5)c4)ncn3)c(C)oc12` [Example 133, 4-{6-[2-(5-Chloro-7-methoxy-2-methyl-benzofuran-3-yl)-ethylamino]-pyrimidin-4-yl}-2-cyclobutoxy-benzoic acid] belongs 68 nM.

Molecule `COc1ccc(F)c2c(CCNc3cc(-c4ccc(C(=O)O)c(OC5CCC5)c4)ncn3)c(C)sc12` [Example 134, 2-Cyclobutoxy-4-{6-[2-(4-fluoro-7-methoxy-2-methyl-benzo[b]thiophen-3-yl)-ethylamino]-pyrimidin-4-yl}-benzoic acid] showed a half-maximal inhibitory concentration (IC50) of 46 nM. The figure for `COc1ccc(Cl)c2c(CCNc3cc(-c4ccc(C(=O)O)c(OC5CCC5)c4)ncn3)c(C)sc12` [Example 135, 4-{6-[2-(4-Chloro-7-methoxy-2-methyl-benzo[b]thiophen-3-yl)-ethylamino]-pyrimidin-4-yl}-2-cyclobutoxy-benzoic acid] is 30 nM; for `Cc1sc2c(C)ccc(F)c2c1CCNc1cc(-c2ccc(C(=O)O)c(OC3CCC3)c2)ncn1` [Example 136, 2-Cyclobutoxy-4-{6-[2-(4-fluoro-2,7-dimethyl-benzo[b]thiophen-3-yl)-ethylamino]-pyrimidin-4-yl}-benzoic acid] it is 91 nM. The figure for `Cc1oc2c(Cl)cccc2c1CCNc1cc(-c2ccc(C(=O)O)c(OC3CCC3)c2)ncn1` [Example 137, 4-{6-[2-(7-Chloro-2-methyl-benzofuran-3-yl)-ethylamino]-pyrimidin-4-yl}-2-cyclobutoxy-benzoic acid] is 49 nM. Regarding `Cc1sc2c(C)cc(F)cc2c1CCNc1cc(-c2ccc(C(=O)O)c(OC3CCC3)c2)ncn1` [Example 138, 2-Cyclobutoxy-4-{6-[2-(5-fluoro-2,7-dimethyl-benzo[b]thiophen-3-yl)-ethylamino]-pyrimidin-4-yl}-benzoic acid], the midpoint of inhibition, the IC50, lay at 75 nM.

Molecule `COc1ccc(F)c2c(CCNc3cc(-c4ccc(C(=O)O)c(OC5CCC5)c4)ncn3)c(C)oc12` [Example 139, 2-Cyclobutoxy-4-{6-[2-(4-fluoro-7-methoxy-2-methyl-benzofuran-3-yl)-ethylamino]-pyrimidin-4-yl}-benzoic acid] displayed a half-maximal inhibitory concentration (IC50) of 245 nM.

With `Cc1oc2c(C)cc(F)cc2c1CCNc1cc(-c2ccc(C(=O)O)c(OC3CCC3)c2)ncn1` [Example 140, 2-Cyclobutoxy-4-{6-[2-(5-fluoro-2,7-dimethyl-benzofuran-3-yl)-ethylamino]-pyrimidin-4-yl}-benzoic acid], the midpoint of inhibition, the IC50, lay at 72 nM.

Turning to `COc1cc(F)c(F)c2c(CCNc3cc(-c4ccc(C(=O)O)c(OC5CCC5)c4)ncn3)c(C)oc12` [Example 141, 2-Cyclobutoxy-4-{6-[2-(4,5-difluoro-7-methoxy-2-methyl-benzofuran-3-yl)-ethylamino]-pyrimidin-4-yl}-benzoic acid], the IC50 stood at 111 nM. `CCOc1cc(-c2cc(NCCc3c(C)sc4c(C)cc(F)cc34)ncn2)ccc1-c1nnn[nH]1` [Example 142, {6-[3-Ethoxy-4-(1H-tetrazol-5-yl)-phenyl]-pyrimidin-4-yl}-[2-(5-fluoro-2,7-dimethyl-benzo[b]thiophen-3-yl)-ethyl]-amine] returned an IC50 of 38 nM. To `CCOc1cc(-c2cc(NCCc3c(C)sc4c(C)cc(F)cc34)ncn2)ccc1OCCC(=O)O` [Example 143, 3-(2-Ethoxy-4-{6-[2-(5-fluoro-2,7-dimethyl-benzo[b]thiophen-3-yl)-ethylamino]-pyrimidin-4-yl}-phenoxy)-propionic acid] belongs 86 nM; to `CCCCOc1cc(-c2cc(NCCc3c(C)sc4c(C)cc(F)cc34)ncn2)cc(F)c1C(=O)O` [Example 144, 2-Butoxy-6-fluoro-4-{6-[2-(5-fluoro-2,7-dimethyl-benzo[b]thiophen-3-yl)-ethylamino]-pyrimidin-4-yl}-benzoic acid], 26 nM.

`COc1ccc(F)c2c(CCNc3cc(-c4ccc(C(=O)O)c(OC5CCC5)c4F)ncn3)c(C)sc12` [Example 146, 2-Cyclobutoxy-3-fluoro-4-{6-[2-(4-fluoro-7-methoxy-2-methyl-benzo[b]thiophen-3-yl)-ethylamino]-pyrimidin-4-yl}-benzoic acid] showed an IC50 of 47 nM. To `COc1cc(Cl)cc2c(CCNc3cc(-c4ccc(C(=O)O)c(OC5CCC5)c4F)ncn3)c(C)oc12` [Example 147, 4-{6-[2-(5-Chloro-7-methoxy-2-methyl-benzofuran-3-yl)-ethylamino]-pyrimidin-4-yl}-2-cyclobutoxy-3-fluoro-benzoic acid] belongs 117 nM. As to `Cc1sc2c(C)ccc(F)c2c1CCNc1cc(-c2cc(F)c(C(=O)O)c(OC3CCC3)c2)ncn1` [Example 148, 2-Cyclobutoxy-6-fluoro-4-{6-[2-(4-fluoro-2,7-dimethyl-benzo[b]thiophen-3-yl)-ethylamino]-pyrimidin-4-yl}-benzoic acid], the 50% inhibitory concentration (IC50) stood at 109 nM. Molecule `COc1ccc(F)c2c(CCNc3cc(-c4cc(F)c(C(=O)O)c(OC5CCC5)c4)ncn3)c(C)sc12` [Example 149, 2-Cyclobutoxy-6-fluoro-4-{6-[2-(4-fluoro-7-methoxy-2-methyl-benzo[b]thiophen-3-yl)-ethylamino]-pyrimidin-4-yl}-benzoic acid] gave an IC50 of 114 nM. As to `COc1cc(F)c(F)c2c(CCNc3cc(-c4cc(F)c(C(=O)O)c(OC5CCC5)c4)ncn3)c(C)oc12` [Example 150, 2-Cyclobutoxy-4-{6-[2-(4,5-difluoro-7-methoxy-2-methyl-benzofuran-3-yl)-ethylamino]-pyrimidin-4-yl}-6-fluoro-benzoic acid], the IC50 was 97 nM.

`COc1cc(Cl)cc2c(CCNc3cc(-c4cc(F)c(C(=O)O)c(OC5CCC5)c4)ncn3)c(C)oc12` [Example 151, 4-{6-[2-(5-Chloro-7-methoxy-2-methyl-benzofuran-3-yl)-ethylamino]-pyrimidin-4-yl}-2-cyclobutoxy-6-fluoro-benzoic acid] had an IC50 of 95 nM.

Values taken from US11325899B2, “Benzofurane and benzothiophene derivatives as PGE2 receptor modulators” (IDORSIA PHARMACEUTICALS LTD, priority 2017, dated 2022).
